Common to all, as to format: cell-based
Experiment [1] relates to Jurkat cells. Kind of experiment: Cell proliferation quantified by CellTiter-Glo. Conditions: Homo sapiens, 72 h, dose curve, 3 d, read-out: anti-proliferative activity. An excerpt:
FIG. 3B is a graph of normalized luminescence versus concentration (log[inhibitor], M) of the indicated compounds (palbociclib, Ia-8, and 17) assessed by CellTiterGlo after treatment of Jurkat cells for 3 d.
In general terms: ATP-based viability assays read luminescence as a measure of living cells.

Experiment [2] deals with Jurkat cells. Kind of experiment: IL-2 levels by ELISA after TCR stimulation. Conditions: Jurkat cells pre-treated with 1 μM for 24 h, then TCR-stimulated for 18 h. How it is done:
FIG. 4 is a graph of [IL2] for the indicated compounds in Jurkat cells upon TCR-stimulation with a-CD3/CD28.
Quantification of IL-2 levels by ELISA from Jurkat cells pre-treated with 1 μM of the indicated compounds for 24 h and then TCR-stimulated for 18 h. Results are shown in FIG. 4 as mean±SD (untreated, n=3; other conditions, n=4) (*p<0.05). […] The structure of 19 (N-(4-(4-(6-((6-acetyl-8-cyclopentyl-5-methyl-7-oxo-7,8-dihydropyrido[2,3-d]pyrimidin-2-yl)amino)pyridin-3-yl)piperazin-1-yl)butyl)-2-((2-(2,6-dioxopiperidin-3-yl)-1,3-dioxoisoindolin-4-yl)oxy)acetamide) is shown here: […]
Background: ELISA stands for enzyme-linked immunosorbent assay.

The next experiment concerns the target T1, Helios (Homo sapiens, UniProt Q96SW2+Q9UKS7).
T1 construct: immunoblots from Jurkat cells treated with the indicated compounds; endogenous in cells; host or cells: Jurkat cells
Kind of experiment: Immunoblot of Helios levels in Jurkat cells. Conditions: 1 μM; for degradation of Helios (immunoblot): 4 h; for protein abundance of Helios (immunoblot): 16 h. The procedure: (§1) FIG. 1A is a set of immunoblots of Jurkat cells treated with 1 μM of the indicated (DKY709 and Ia-1 to Ia-8) compounds for 4 hours, showing the levels of Ikaros, Helios, CDK4, CDK6, and tubulin for each compound.
(§2) FIG. 1B is a set of immunoblots of Jurkat cells treated with the Helios degrader DKY709, the triple degrader Ia-8, and the paired negative control compound 17 for 4 hours, showing the levels of Ikaros, Helios, CDK4, CDK6, and tubulin for each compound at 0.1 μM and 1 μM.
(§3) FIG. 2 is a set of immunoblots of Jurkat cells treated with the indicated compounds (palbociclib, DKY709, Ia-8, and 17) at 0.1 μM and 1 μM for 16 hours.
(§4) The structure of DKY709 (3-(5-(1-benzylpiperidin-4-yl)-1-oxoisoindolin-2-yl)piperidine-2,6-dione) is shown here: […]
In general terms: In western blotting, separated proteins are transferred to a membrane and probed.

Another experiment addresses T2, CDK4 (Homo sapiens, UniProt P11802).
T2 construct: immunoblots from Jurkat cells treated with the indicated compounds; endogenous in cells; host or cells: Jurkat cells
Kind of experiment: Immunoblot of CDK4 levels in Jurkat cells. The settings on record: 1 μM; for degradation of CDK4 (immunoblot): 4 h; for protein abundance of CDK4 (immunoblot): 16 h. The procedure:
as §1, §2, §3, §4

The subject of the next experiment is phosphorylated Rb. Kind of experiment: Immunoblot of phosphorylated Rb in Jurkat cells. Conditions: 1 μM, 16 h. The procedure:
as §3

Experiment [3] deals with Jurkat cells. Kind of experiment: Propidium iodide staining for DNA content (G1 arrest). The settings on record: 100 nM, 24 h. The procedure: FIG. 3A is a set of histograms and the quantification of the DNA content using propidium iodide (PI) staining after treatment of Jurkat cells with the indicated compounds (palbociclib, DKY709, 18, Ia-6, 16, Ia-8, and 17) at 100 nM for 24 h.
The structure of 18 (N-(4-(4-(6-((6-acetyl-8-cyclopentyl-5-methyl-7-oxo-7,8-dihydropyrido[2,3-d]pyrimidin-2-yl)amino)pyridin-3-yl)piperazin-1-yl)butyl)-2-((2-(1-methyl-2,6-dioxopiperidin-3-yl)-1,3-dioxoisoindolin-4-yl)amino)acetamide) is shown here: […]

The next experiment deals with T3, CDK6 (Homo sapiens, UniProt Q00534).
T3 construct: immunoblots from Jurkat cells treated with the indicated compounds; endogenous in cells; host or cells: Jurkat cells
T3 sequence (Q00534 whole entry): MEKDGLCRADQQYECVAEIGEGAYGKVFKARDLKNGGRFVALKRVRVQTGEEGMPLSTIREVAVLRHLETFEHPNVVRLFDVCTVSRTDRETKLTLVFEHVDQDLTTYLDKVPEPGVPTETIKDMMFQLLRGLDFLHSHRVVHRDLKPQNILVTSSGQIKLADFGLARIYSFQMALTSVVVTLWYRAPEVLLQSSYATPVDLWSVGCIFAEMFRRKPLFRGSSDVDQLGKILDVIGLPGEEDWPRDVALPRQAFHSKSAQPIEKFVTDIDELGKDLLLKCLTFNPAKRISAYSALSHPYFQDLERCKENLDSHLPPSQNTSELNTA
Briefly: Immunoblot of CDK6 levels in Jurkat cells. Conditions: 1 μM; for degradation of CDK6 (immunoblot): 4 h; for protein abundance of CDK6 (immunoblot): 16 h. The procedure: as §1, §2, §3, §4

For a further experiment, the target named is T4, Ikaros (Homo sapiens, UniProt Q13422).
T4 construct: endogenous in cells; host or cells: Jurkat cells
T4 sequence (Q96SW2 whole entry partner): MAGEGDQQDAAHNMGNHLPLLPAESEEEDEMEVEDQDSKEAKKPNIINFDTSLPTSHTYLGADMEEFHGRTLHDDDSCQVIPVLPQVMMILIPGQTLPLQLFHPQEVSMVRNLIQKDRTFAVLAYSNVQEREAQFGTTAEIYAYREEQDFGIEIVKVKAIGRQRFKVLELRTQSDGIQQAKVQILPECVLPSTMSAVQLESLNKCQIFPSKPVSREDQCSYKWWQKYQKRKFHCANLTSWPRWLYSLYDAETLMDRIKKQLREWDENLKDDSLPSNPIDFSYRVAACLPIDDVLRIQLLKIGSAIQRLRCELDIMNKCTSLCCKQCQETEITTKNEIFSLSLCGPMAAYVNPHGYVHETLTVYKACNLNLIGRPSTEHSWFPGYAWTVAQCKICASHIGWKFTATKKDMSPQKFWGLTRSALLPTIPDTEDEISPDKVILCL
T4 sequence (Q16531 whole entry partner): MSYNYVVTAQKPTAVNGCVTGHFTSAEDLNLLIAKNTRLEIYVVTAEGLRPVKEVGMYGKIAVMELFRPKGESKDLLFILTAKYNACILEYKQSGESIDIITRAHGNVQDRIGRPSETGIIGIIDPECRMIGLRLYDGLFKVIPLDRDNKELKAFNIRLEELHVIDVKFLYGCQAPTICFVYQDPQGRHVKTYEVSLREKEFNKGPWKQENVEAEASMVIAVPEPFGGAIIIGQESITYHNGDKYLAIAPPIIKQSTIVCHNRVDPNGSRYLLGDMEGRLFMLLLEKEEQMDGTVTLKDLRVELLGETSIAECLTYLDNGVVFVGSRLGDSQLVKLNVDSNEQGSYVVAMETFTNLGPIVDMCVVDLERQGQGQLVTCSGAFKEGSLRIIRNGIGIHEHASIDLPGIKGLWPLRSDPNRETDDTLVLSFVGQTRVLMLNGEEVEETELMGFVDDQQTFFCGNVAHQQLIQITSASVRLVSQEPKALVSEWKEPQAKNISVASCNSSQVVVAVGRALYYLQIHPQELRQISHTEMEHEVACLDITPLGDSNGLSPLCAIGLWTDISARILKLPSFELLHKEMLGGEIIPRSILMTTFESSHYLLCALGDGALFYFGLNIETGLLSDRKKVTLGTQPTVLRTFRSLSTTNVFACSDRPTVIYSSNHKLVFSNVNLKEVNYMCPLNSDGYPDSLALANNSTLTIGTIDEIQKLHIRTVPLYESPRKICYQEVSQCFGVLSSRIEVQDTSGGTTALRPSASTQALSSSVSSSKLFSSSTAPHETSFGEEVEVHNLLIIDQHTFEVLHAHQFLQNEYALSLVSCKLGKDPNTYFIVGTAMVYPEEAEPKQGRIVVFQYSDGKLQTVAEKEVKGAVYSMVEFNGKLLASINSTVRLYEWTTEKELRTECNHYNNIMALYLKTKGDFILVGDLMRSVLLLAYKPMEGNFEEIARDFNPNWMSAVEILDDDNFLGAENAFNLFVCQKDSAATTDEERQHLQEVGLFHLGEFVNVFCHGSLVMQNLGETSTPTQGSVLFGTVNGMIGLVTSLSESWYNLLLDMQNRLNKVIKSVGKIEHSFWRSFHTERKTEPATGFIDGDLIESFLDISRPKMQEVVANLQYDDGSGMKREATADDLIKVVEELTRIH
T4 sequence (Q13422 whole entry): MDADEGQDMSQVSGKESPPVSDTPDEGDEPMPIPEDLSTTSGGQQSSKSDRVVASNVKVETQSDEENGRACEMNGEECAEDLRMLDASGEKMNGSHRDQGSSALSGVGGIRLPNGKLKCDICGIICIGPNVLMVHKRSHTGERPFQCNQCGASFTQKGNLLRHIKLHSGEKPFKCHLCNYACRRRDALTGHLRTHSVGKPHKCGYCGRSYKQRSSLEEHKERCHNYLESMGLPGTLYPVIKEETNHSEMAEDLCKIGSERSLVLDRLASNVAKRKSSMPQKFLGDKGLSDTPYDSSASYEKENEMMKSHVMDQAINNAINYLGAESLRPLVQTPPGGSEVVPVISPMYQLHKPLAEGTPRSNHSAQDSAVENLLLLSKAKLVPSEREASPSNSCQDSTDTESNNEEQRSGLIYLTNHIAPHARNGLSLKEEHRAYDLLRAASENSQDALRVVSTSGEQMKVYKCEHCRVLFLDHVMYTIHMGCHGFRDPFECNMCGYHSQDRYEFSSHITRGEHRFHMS
Kind of experiment: Immunoblot of Ikaros levels in Jurkat cells. Conditions: 1 μM, 4 h. The procedure: as §1, §2, §4

T1 sequence (Q9UKS7 whole entry): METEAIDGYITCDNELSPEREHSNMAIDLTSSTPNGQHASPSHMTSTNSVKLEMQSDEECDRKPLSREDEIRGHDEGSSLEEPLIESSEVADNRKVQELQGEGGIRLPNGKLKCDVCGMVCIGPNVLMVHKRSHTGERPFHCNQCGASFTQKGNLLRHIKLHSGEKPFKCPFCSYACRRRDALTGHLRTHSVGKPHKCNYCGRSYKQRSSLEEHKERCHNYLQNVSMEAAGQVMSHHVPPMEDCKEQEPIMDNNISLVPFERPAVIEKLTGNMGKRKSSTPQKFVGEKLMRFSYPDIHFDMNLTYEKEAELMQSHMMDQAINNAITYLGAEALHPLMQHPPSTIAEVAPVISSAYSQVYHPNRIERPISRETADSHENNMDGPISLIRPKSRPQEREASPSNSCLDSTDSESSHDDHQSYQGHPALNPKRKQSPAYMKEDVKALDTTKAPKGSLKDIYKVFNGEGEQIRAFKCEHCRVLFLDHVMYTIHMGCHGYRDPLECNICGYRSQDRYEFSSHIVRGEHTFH
T1 sequence (Q96SW2 whole entry): as the sequence (Q96SW2 whole entry partner) above
T1 sequence (Q16531 whole entry partner): as the sequence (Q16531 whole entry partner) above
T2 sequence (P11802 whole entry): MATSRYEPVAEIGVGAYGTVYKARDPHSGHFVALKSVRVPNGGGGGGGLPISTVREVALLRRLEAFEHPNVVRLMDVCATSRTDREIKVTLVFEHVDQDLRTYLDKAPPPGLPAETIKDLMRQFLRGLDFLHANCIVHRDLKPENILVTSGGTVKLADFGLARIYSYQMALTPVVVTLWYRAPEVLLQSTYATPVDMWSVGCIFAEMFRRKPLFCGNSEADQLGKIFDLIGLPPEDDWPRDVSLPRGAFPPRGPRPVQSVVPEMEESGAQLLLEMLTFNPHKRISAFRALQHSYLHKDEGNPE

As to `CC(=O)c1c(C)c2cnc(Nc3ccc(N4CCN(CCOc5ccc(CN6CCC(c7ccc8c(c7)CN(C7CCC(=O)N(C)C7=O)C8=O)CC6)cc5)CC4)cn3)nc2n(C2CCCC2)c1=O` (centres unmarked) [compound 17, 3-(5-(1-(4-(2-(4-(6-((6-acetyl-8-cyclopentyl-5-methyl-7-oxo-7,8-dihydropyrido[2,3-d]pyrimidin-2-yl)amino)pyridin-3-yl)piperazin-1-yl)ethoxy)benzyl)piperidin-4-yl)-1-oxoisoindolin-2-yl)-1-methylpiperidine-2,6-dione], the IC50 in the experiment on Jurkat cells [1] worked out at 244 nM. Moreover, in the experiment with Jurkat cells [2], the IL-2 secretion entry is “had activity similar to that of palbociclib”. For the same molecule, at Helios, the “degradation of Helios (immunoblot)” value is reported as “had no degradation activity” and the “protein abundance of Helios (immunoblot)” value was “had minimal effects”. For the same molecule, on CDK4, the “degradation of CDK4 (immunoblot)” value is recorded as “had no degradation activity” and the “protein abundance of CDK4 (immunoblot)” value was “had minimal effects”. Besides, the “levels of phosphorylated Rb (immunoblot)” value with phosphorylated Rb is on record as “had minimal effects”. The “induction of G1 arrest” value in the experiment on Jurkat cells [3] is recorded as “did not”. On CDK6, the “degradation of CDK6 (immunoblot)” value is “had no degradation activity” and the “protein abundance of CDK6 (immunoblot)” value is “had minimal effects”.

As to `Nc1cccc2c1CN(C1CCC(=O)NC1=O)C2=O` (centres unmarked) [Lenalidomide, reference compound], the IL-2 secretion result in the experiment with Jurkat cells [2] is on record as “elevated IL-2 secretion, although it did not reach statistical significance”.

As for `O=C1CCC(N2Cc3cc(C4CCN(Cc5ccccc5)CC4)ccc3C2=O)C(=O)N1` (centres unmarked) [DKY709, 3-(5-(1-benzylpiperidin-4-yl)-1-oxoisoindolin-2-yl)piperidine-2,6-dione, reference compound], in the experiment with Jurkat cells [2], the IL-2 secretion result is on record as “elevated IL-2 secretion, although it did not reach statistical significance”. In addition, on Helios, the “degradation of Helios (immunoblot)” value is given as “only induced degradation of Helios” and the “protein abundance of Helios (immunoblot)” value is “induced Helios degradation”. Further, the “degradation of CDK4 (immunoblot)” value at CDK4 was “did not affect CDK4 or CDK6 abundance”. The “levels of phosphorylated Rb (immunoblot)” value with phosphorylated Rb is reported as “without affecting the levels of phosphorylated Rb”. Besides, the “induction of G1 arrest” value with Jurkat cells [3] is recorded as “but not DKY709, induced G1 arrest”. In addition, at CDK6, the “degradation of CDK6 (immunoblot)” value is recorded as “did not affect CDK4 or CDK6 abundance”.

Consider `CC(=O)c1c(C)c2cnc(Nc3ccc(N4CCN(CCOc5ccc(CN6CCC(c7ccc8c(c7)CN(C7CCC(=O)NC7=O)C8=O)CC6)cc5)CC4)cn3)nc2n(C2CCCC2)c1=O` (centres unmarked) [Ia-8, 3-(5-(1-(4-(2-(4-(6-((6-acetyl-8-cyclopentyl-5-methyl-7-oxo-7,8-dihydropyrido[2,3-d]pyrimidin-2-yl)amino)pyridin-3-yl)piperazin-1-yl)ethoxy)benzyl)piperidin-4-yl)-1-oxoisoindolin-2-yl)piperidine-2,6-dione], for which the IC50 with Jurkat cells [1] came out at 166 nM. Besides, in the experiment with Jurkat cells [2], the IL-2 secretion entry is given as “induced elevated levels of IL2 that were comparable to that of 18”. On Helios, the “degradation of Helios (immunoblot)” value is “induced the degradation of CDK4, CDK6, and Helios”; the “protein abundance of Helios (immunoblot)” value was “induced the triple degradation of Helios, CDK4, and CDK6”. Further, at CDK4, the “degradation of CDK4 (immunoblot)” value was “induced the degradation of CDK4, CDK6, and Helios”; the “protein abundance of CDK4 (immunoblot)” value was “induced the triple degradation of Helios, CDK4, and CDK6”. In addition, the “levels of phosphorylated Rb (immunoblot)” value in the experiment on phosphorylated Rb is “reduced the levels of phosphorylated Rb”. Moreover, at Ikaros, the “degradation of Ikaros (immunoblot)” value is listed as “but not Ikaros”. Moreover, in the experiment with Jurkat cells [3], the “induction of G1 arrest” value is “induced G1 arrest”. At CDK6, the “degradation of CDK6 (immunoblot)” value was “induced the degradation of CDK4, CDK6, and Helios”; the “protein abundance of CDK6 (immunoblot)” value was “induced the triple degradation of Helios, CDK4, and CDK6”.

These data come from patent US20240376096A1, “SMALL MOLECULE CYCLIN DEPENDENT KINASE 4/6 (CDK4/6) AND IKZF2 (HELIOS) DEGRADERS AND METHODS OF USE THEREOF” (DANA-FARBER CANCER INSTITUTE, INC., priority 2021, published 2024).
